Measured values taken from paper PMC3380929 (PLoS Pathogens, 2012).
“Also recorded” adds a separate entry of the source. Positions of bridges follow the written chain, without caps; N, C: chain ends. Residues, ends and D or L forms follow the SMILES beside them.

Assays:
[1] = biological target: PfAMA1 from strain 3D7 (Plasmodium falciparum, UniProt Q7KQK5); assay: SPR binding to immobilized recombinant PfAMA1 3D7; parameters: species or system P. falciparum (strain 3D7); details: ratio PfRON2sp1 vs PfRON2sp2, SPR
Text: (§1) (ii) P. pastoris expression: Synthetic genes were optimized for PfAMA1 coding of residues 97–442, from strains 3D7 (Genbank accession number U33274), CAMP (accession number M34552) and HB3 (accession number U33277). Potential N-glycosylation sites were mutated and genes were cloned EcoRI-KpnI in the pPicZalpha A vector (Invitrogen), resulting in an 11-residues sequence extension followed by myc-epitope and hexa-His tags at the C-terminus), expressed in P. pastoris, and purified as described. Yield after purification was approximately 20 mg per L of culture. PfAMA1 FVO (residues 25–545, no tags, accession number AJ277646) was produced as described before. The DiCo3 protein was modified compared to the published protein [23]; it includes the PfAMA1 FVO prodomain (amino acids 25–96) and one additional mutation to minimize proteolytic cleavage Lys376–>Arg (B. Faber, unpublished results). The PfAMA1 3D7mut (Ile225–>Asn, residues 25–545, no tags) mutant was generated by site-directed mutagenesis (Genscript) and produced in P. pastoris in a similar fashion to the native protein [29].
(§2) A 39-residue peptide corresponding to residues 2021 to 2059 of PfRON2 (PfRON2sp1) was synthesized by Kinexus (Vancouver, Canada) and disulfide cyclized. […]

[2] = biological target: PfAMA1 from strain CAMP; assay: SPR binding to immobilized recombinant PfAMA1 CAMP; parameters: species or system P. falciparum (strain CAMP); details: SPR Biacore 2000, AMA1 immobilized on CM5, 25°C, PBS and 0.005% Tween 20, steady-state model (Req extrapolated), mean ± SD, at least three independent experiments, read-out: Apparent equilibrium dissociation constant KD
Text: as §1, §2

[3] = tested on: PfAMA1 from 3D7, CAMP, FVO and HB3; assay: SPR binding compared across PfAMA1 strains; parameters: species or system P. falciparum
Text: as §1
A 39-residue peptide corresponding to residues 2021 to 2059 of PfRON2 (PfRON2sp1) was synthesized by Kinexus (Vancouver, Canada) and disulfide cyclized. Lyophilized PfRON2sp1 was solubilized in 100% DMSO and subsequently diluted in HBS (20 mM HEPES pH 7.5, 150 mM NaCl) for use in co-crystallization and functional studies. Peptides PfRON2sp2 (residues 2027 to 2054) and R1 were synthesized by PolyPeptide (Strasbourg, France) and solubilized in 3.5% DMSO for subsequent use.
SPR measurements were made with a Biacore 2000 instrument (Biacore AB). AMA1 proteins diluted in 10 mM sodium acetate pH 4.5 for 3D7, CAMP, HB3 and FVO strains, or pH 4.0 for 3D7mut and Dico3, were covalently immobilized by an amine-coupling procedure on CM5 sensor chips (GE Healthcare). The reference flow cell was prepared by the same procedure in absence of protein. […]

[4] = tested on: P. falciparum 3D7; assay: Red blood cell invasion assay, P. falciparum 3D7; format: cell-based, P. falciparum (strain 3D7); details: peptides 0.2 to 20 µM, parasitemia of IRBC 16 hours post-invasion, N = 3
Protocol: (§3) The P. falciparum cell cultures and the invasion assays were performed as described previously. Briefly, highly synchronized P. falciparum 3D7 and HB3 schizonts (1.5% hematocrit, 1.5% parasitemia) were incubated with R1 or PfRON2sp1 peptides. Blood smears were collected 16 hours post-invasion and used for ring-stage parasites counting. The results presented are representative of three independent experiments, each performed in triplicate.

[5] = tested on: P. falciparum 3D7 or HB3; assay: Red blood cell invasion assay, cross-strain (3D7 and HB3); format: cell-based, P. falciparum (strains 3D7 and HB3); details: for Cross-strain reactivity of invasion inhibition: 3D7 or HB3, peptides 0.2 to 20 µM, 16 hours post-invasion, N = 3; for Inhibition of erythrocyte invasion: P. falciparum merozoites, in words
Protocol: as §3

[6] = biological target: PfAMA1 3D7 (Plasmodium falciparum, UniProt Q7KQK5); assay: Isothermal titration calorimetry of R1 with PfAMA1 3D7; format: binding, P. falciparum (strain 3D7); details: ITC200, PfAMA1 3D7 (P. pastoris) 0.6 µM, R1 55 µM, PBS, 25°C, 1∶1 interaction model
Protocol: ITC measurements were made using a ITC200 calorimeter (MicroCal). PfAMA1 3D7 (P. pastoris) and peptide R1 were diluted in PBS to final concentrations of 0.6 µM and 55 µM, respectively. PfAMA1 3D7 (initial volume 200 µL) was titrated at 25°C by consecutive injections of the peptide R1 (2 µL aliquots at 3 min intervals). Raw data were normalized and corrected for the heat of dilution of R1 in PBS. Binding stoichiometry was determined by fitting the final data to a 1∶1 interaction model using the Origin7 software (OriginLab).

[7] = biological target: PfAMA1 3D7 (residues 97-442), P. pastoris expression (Plasmodium falciparum (strain 3D7)) (UniProt Q7KQK5); assay: SPR; Biacore 2000; PfAMA1 (3D7, CAMP, HB3, FVO) amine-coupled on CM5 at pH 4.5; PfRON2sp peptides injected; 25°C, PBS with 0.005% Tween 20, 5 µL/min; apparent KD from a steady-state model, Req extrapolated
[8] = biological target: PfAMA1 CAMP (residues 97-442), P. pastoris expression (Plasmodium falciparum (strain CAMP)) (UniProt P50489); assay: as above
[9] = biological target: PfAMA1 FVO (residues 25-545, no tags) (Plasmodium falciparum (strain FVO)); assay: as above
[10] = biological target: PfAMA1 HB3 (residues 97-442), P. pastoris expression (Plasmodium falciparum (strain HB3)); assay: as above
[11] = biological target: the molecule itself; assay: crystal structure

## CC[C@H](C)[C@H](NC(=O)[C@H](CC(=O)O)NC(=O)[C@H](CCCCN)NC(=O)[C@H](C)NC(=O)[C@H](CCC(N)=O)NC(=O)[C@H](CCC(N)=O)NC(=O)[C@@H](NC(=O)[C@@H](NC(=O)[C@@H](N)CC(=O)O)[C@@H](C)CC)[C@@H](C)O)C(=O)NCC(=O)N[C@@H](C)C(=O)NCC(=O)N1CCC[C@H]1C(=O)N[C@H](C(=O)N[C@@H](C)C(=O)N[C@@H](CO)C(=O)N[C@H]1CSSC[C@@H](C(=O)N[C@@H](CC(C)C)C(=O)N[C@@H](CC(N)=O)C(=O)N[C@@H](CO)C(=O)N[C@H](C(=O)N[C@H](C(=O)N[C@@H](CC(N)=O)C(=O)N[C@H](C(=O)N[C@@H](C)C(=O)N[C@@H](CC(C)C)C(=O)N[C@@H](CO)C(=O)O)[C@@H](C)O)C(C)C)C(C)C)NC(=O)[C@H]([C@@H](C)CC)NC(=O)[C@H](CCC(N)=O)NC(=O)[C@H](CCC(N)=O)NC(=O)[C@@H]2CCCN2C(=O)[C@@H]2CCCN2C(=O)[C@H](CO)NC(=O)[C@H](CCSC)NC(=O)[C@H](CCCNC(=N)N)NC(=O)[C@H]([C@@H](C)O)NC(=O)[C@H]([C@@H](C)O)NC(=O)[C@H](Cc2ccccc2)NC1=O)C(C)C [PfRON2sp1]
[1]
  Affinity of PfAMA1 from 3D7 for PfRON2sp1 higher than for PfRON2sp2: 25 fold
[2]
  Kd: 14.6 ± 3.8 nM
[3]; all the PfAMA1 proteins tested, SPR, compared with R1
  Affinity for PfAMA1 relative to R1 peptide: higher affinity than for R1 peptide
[3]; in words
  Affinity to PfAMA1: very high affinity to PfAMA1
[4]
  Inhibition of red blood cell invasion relative to R1 peptide: higher capacity to inhibit red cell invasion; also recorded: higher inhibitory efficiency
[5]
  Cross-strain reactivity of invasion inhibition: cross-strain inhibition of invasion; also recorded: cross-strain reactivity; also recorded: not strain specific
  Inhibition of erythrocyte invasion: very efficient at inhibiting invasion
[5]; listed as PfRON2 peptide
  Cross-strain reactivity of invasion inhibition: strong inhibitory potency is not affected by AMA1 polymorphisms
  Inhibition of erythrocyte invasion: inhibits erythrocyte invasion

## CC[C@H](C)[C@H](NC(=O)[C@H](CC(=O)O)NC(=O)[C@@H](N)CCCCN)C(=O)NCC(=O)N[C@@H](C)C(=O)NCC(=O)N1CCC[C@H]1C(=O)N[C@H](C(=O)N[C@@H](C)C(=O)N[C@@H](CO)C(=O)N[C@H]1CSSC[C@@H](C(=O)N[C@@H](CC(C)C)C(=O)N[C@@H](CC(N)=O)C(=O)N[C@@H](CO)C(=O)N[C@H](C(=O)N[C@H](C(=O)N[C@@H](CC(N)=O)C(=O)O)C(C)C)C(C)C)NC(=O)[C@H]([C@@H](C)CC)NC(=O)[C@H](CCC(N)=O)NC(=O)[C@H](CCC(N)=O)NC(=O)[C@@H]2CCCN2C(=O)[C@@H]2CCCN2C(=O)[C@H](CO)NC(=O)[C@H](CCSC)NC(=O)[C@H](CCCNC(=N)N)NC(=O)[C@H]([C@@H](C)O)NC(=O)[C@H]([C@@H](C)O)NC(=O)[C@H](Cc2ccccc2)NC1=O)C(C)C [PfRON2sp2] (H-KDIGAGPVASCFTTRMSPPQQICLNSVVN-OH; disulfide 11-23; N-terminus and C-terminus assumed)
[2]
  Kd: 165 ± 42 nM
[3]; 3D7 vs CAMP, SPR
  Difference in affinity of PfAMA1 3D7 and CAMP homologs: no significant difference in the affinity

## CC[C@H](C)[C@H](NC(=O)[C@H](Cc1cnc[nH]1)NC(=O)[C@H](CCSC)NC(=O)[C@H](CCCNC(=N)N)NC(=O)[C@H](CO)NC(=O)CNC(=O)[C@H](Cc1ccccc1)NC(=O)[C@H](CCCCN)NC(=O)[C@H](CO)NC(=O)[C@H](Cc1ccccc1)NC(=O)[C@H](CC(C)C)NC(=O)[C@@H]1CCCN1C(=O)[C@H](CC(C)C)NC(=O)[C@H](Cc1ccccc1)NC(=O)[C@H](CCC(=O)O)NC(=O)[C@H](C)NC(=O)[C@H](Cc1ccccc1)NC(=O)[C@@H](N)C(C)C)C(=O)N[C@@H](CC(C)C)C(=O)N[C@@H](CCCCN)C(=O)O [R1] (H-VFAEFLPLFSKFGSRMHILK-OH)
[6]
  Kd: 145 nM

## PfRON2sp1 (PfRON2 residues 2021-2059) (peptide)
[7]
  Kd: 20.3 nM
[8]
  Kd: 14.6 nM
[9]
  Kd: 9.2 nM
[10]
  Kd: 18.3 nM

## PfRON2sp2 (PfRON2 residues 2027-2055) (peptide)
[7]
  Kd: 520 nM
[8]
  Kd: 165 nM
[9]
  Kd: 80 nM
[10]
  Kd: 680 nM

## VFAEFLPLFSKFGSRMHILK (source: synthetic peptide (PolyPeptide)) [invasion-inhibitory peptide R1]
[11]
  binding result: binds
